{"source": "patent US11986478B2", "about": "(priority 2021, dated 2024)", "key": {"SARS-CoV-2 PLpro [1]": {"molecular_target": "T1, SARS-CoV-2 PLpro (Severe acute respiratory syndrome coronavirus 2, UniProt P0DTD1)", "assay": "biochemical", "assay_type": "biochemical"}, "SARS-CoV-2 [2]": {"test_system": "SARS-CoV-2", "assay": "microbe, parasite or virus in culture", "assay_type": "cell-based", "details": "Severe acute respiratory syndrome coronavirus 2, read-out: EC50 anti-SARS-CoV-2 activity"}, "SARS-CoV-2 [3]": {"test_system": "SARS-CoV-2", "assay_type": "cell-based"}, "MERS-CoV [4]": {"test_system": "MERS-CoV", "assay_type": "cell-based"}, "SARS-CoV-2 [5]": {"test_system": "SARS-CoV-2", "assay_type": "cell-based", "remark": "listed apart in the source"}, "MERS-CoV [6]": {"test_system": "MERS-CoV", "assay_type": "cell-based", "remark": "listed apart in the source"}, "hCoV-229E": {"test_system": "hCoV-229E", "assay_type": "cell-based"}, "hCoV-OC43": {"test_system": "hCoV-OC43", "assay_type": "cell-based"}, "SARS-CoV-2 PLpro [7]": {"molecular_target": "T1, SARS-CoV-2 PLpro", "assay_type": "biochemical"}, "MERS-CoV PLpro [8]": {"molecular_target": "T2, MERS-CoV PLpro (Middle East respiratory syndrome-related coronavirus, UniProt K9N7C7)", "T2 sequence (K9N7C7 1552-1823 limits assumed)": "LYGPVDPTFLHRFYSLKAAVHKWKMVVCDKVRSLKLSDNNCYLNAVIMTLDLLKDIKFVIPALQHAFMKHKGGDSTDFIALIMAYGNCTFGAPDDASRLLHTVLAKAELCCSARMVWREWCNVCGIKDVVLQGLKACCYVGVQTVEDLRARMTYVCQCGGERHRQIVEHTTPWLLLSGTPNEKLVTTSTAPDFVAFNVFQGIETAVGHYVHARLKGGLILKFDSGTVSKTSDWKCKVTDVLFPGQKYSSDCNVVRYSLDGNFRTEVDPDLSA", "assay_type": "biochemical"}, "human DUBs": {"test_system": "human DUBs", "assay_type": "biochemical"}, "SARS-CoV-2 PLpro [9]": {"molecular_target": "T1, SARS-CoV-2 PLpro", "assay_type": "biochemical", "remark": "listed apart in the source"}, "[10]": {"test_system": "cellular proteases (serine, cysteine and acid proteases) in Huh-7, Caco-2 and A549 lysates", "assay_type": "biochemical, human"}, "SARS-CoV-2 PLpro [11]": {"molecular_target": "T1, SARS-CoV-2 PLpro", "assay_type": "cell-based"}, "MERS-CoV PLpro [12]": {"molecular_target": "T2, MERS-CoV PLpro", "assay_type": "cell-based"}, "[13]": {"test_system": "SARS-CoV-2-infected Caco-2 cells", "assay_type": "cell-based, human"}, "[14]": {"test_system": "MERS-CoV-infected Huh-7 cells", "assay_type": "cell-based, human"}, "Caco-2 and Huh-7 cells": {"test_system": "Caco-2 and Huh-7 cells", "assay_type": "cell-based, human"}, "SARS-CoV-2 [15]": {"test_system": "SARS-CoV-2", "set-up": "species or system golden Syrian hamster", "details": "hamster, in vivo"}, "MERS-CoV [16]": {"test_system": "MERS-CoV", "assay_type": "cell-based", "remark": "listed apart in the source"}, "[17]": {"test_system": "Huh7, VeroE6/TMPRSS2, Calu-3, Caco-2, BSC1 cells and human embryonic lung fibroblasts (HELF)"}, "MERS-CoV PLpro [18]": {"molecular_target": "T2, MERS-CoV PLpro", "assay_type": "biochemical", "remark": "listed apart in the source"}, "[19]": {"details": "read-out: IC50 against SARS-CoV-2-PLpro"}}, "note": "Like-named read-outs stand apart in the source and are kept apart here."}
{"molecule": "O=C(Nc1ccccc1Cl)c1sc(=S)n2c1[nH]c(=O)c1ccccc12", "note": "[Compound F0213]", "values": [{"measurement": "IC50", "setting": "SARS-CoV-2 PLpro [1]; [19]", "value": 7.4, "unit": "µM"}, {"measurement": "EC50", "setting": "SARS-CoV-2 [2]", "value": 4.5, "unit": "µM"}, {"measurement": "inhibition of virus replication by NP antigen immunofluorescence", "setting": "SARS-CoV-2 [3]", "value": "significant inhibition of virus replication"}, {"measurement": "inhibition of virus replication by NP antigen immunofluorescence", "setting": "MERS-CoV [4]", "value": "significant inhibition of virus replication"}, {"measurement": "reduction of SARS-CoV-2 viral yields", "setting": "SARS-CoV-2 [5]", "value": "more than 1 log 10"}, {"measurement": "decrease of viral yields", "setting": "MERS-CoV [6]", "value": "about 3 log 10"}, {"measurement": "decrease of viral yields", "setting": "hCoV-229E", "value": "about 2 log 10"}, {"measurement": "decrease of viral yields", "setting": "hCoV-OC43", "value": "around 1.5 log 10"}, {"measurement": "cleavage of ISG15-AMC and Ubiquitin-AMC", "setting": "SARS-CoV-2 PLpro [7]", "value": "inhibited cleavage"}, {"measurement": "cleavage of ISG15-AMC and Ubiquitin-AMC", "setting": "MERS-CoV PLpro [8]", "value": "inhibited cleavage"}, {"measurement": "modification of cellular DUBs by HA-Ub-VS", "setting": "human DUBs", "value": "no change was noted in the immunoblot pattern"}, {"measurement": "modification of PLpro by HA-Ub-VS", "setting": "SARS-CoV-2 PLpro [9]", "value": "eliminated in the presence of GRL0617 but not F0213"}, {"measurement": "cellular protease activity", "setting": "[10]", "value": "not affected"}, {"measurement": "rescue of IFN-β, IRF3 and NF-κB reporter gene expression", "setting": "SARS-CoV-2 PLpro [11]", "value": "rescued the genes expression in a dose-dependent manner"}, {"measurement": "rescue of IFN-β, IRF3 and NF-κB reporter gene expression", "setting": "MERS-CoV PLpro [12]", "value": "rescued the genes expression in a dose-dependent manner"}, {"measurement": "expression of IFN-responsive genes ISG15 and PKR", "setting": "[13]", "value": "significantly enhanced"}, {"measurement": "transcription levels of ISG15 and PKR", "setting": "[14]", "value": "reduced"}, {"measurement": "cellular antiviral signaling", "setting": "Caco-2 and Huh-7 cells", "value": "potentiated the cellular antiviral signaling"}, {"measurement": "SARS-CoV-2 N expression in lung by immunofluorescence", "setting": "SARS-CoV-2 [15]", "value": "reduced N expression"}, {"measurement": "SARS-CoV-2 genome copies in the lungs", "setting": "SARS-CoV-2 [15]", "value": "suppression"}, {"measurement": "lung damage by H & E staining", "setting": "SARS-CoV-2 [15]", "value": "improved morphology and milder infiltrations"}, {"measurement": "decrease of virus plaque-forming units in lung tissues", "setting": "SARS-CoV-2 [15]; 5 mg/kg/day", "value": "1-2 log 10"}, {"measurement": "efficacy by route on lung genome copies", "setting": "SARS-CoV-2 [15]; 5 mg/kg/day", "value": "superior efficacy via PO route than that of IP injection"}, {"measurement": "antiviral EC50 against MERS-CoV compared with SARS-CoV-2", "setting": "MERS-CoV [16]", "value": "lower antiviral EC50 against MERS-CoV than SARS-CoV-2"}, {"measurement": "cytotoxicity in the matching cell lines", "setting": "[17]", "value": "negligible cytotoxicity"}]}
{"molecule": "COc1cc2c(=O)[nH]c3c(C(=O)Nc4cc(Cl)ccc4C)sc(=S)n3c2cc1OC", "note": "[Compound F0326]", "values": [{"measurement": "IC50", "setting": "SARS-CoV-2 PLpro [1]", "value": 8.2, "unit": "µM"}, {"measurement": "EC50", "setting": "SARS-CoV-2 [2]", "value": 7.6, "unit": "µM"}]}
{"molecule": "Cc1cccc(NC(=O)c2sc(=S)n3c2[nH]c(=O)c2cc4c(cc23)OCO4)c1", "note": "[Compound F0393]", "values": [{"measurement": "IC50", "setting": "SARS-CoV-2 PLpro [1]; [19]", "value": 15.8, "unit": "µM"}]}
{"molecule": "CCN1C(=O)C=CC1=O", "note": "[NEM, N-ethyl-maleimide, reference compound]", "values": [{"measurement": "modification of cellular DUBs by HA-Ub-VS", "setting": "human DUBs", "value": "diminished the modification of HA-Ub-VS on DUBs"}]}
{"molecule": "GRL0617 [reference compound]", "values": [{"measurement": "effect on MERS-CoV-PLpro activity", "setting": "MERS-CoV PLpro [18]", "value": "without impairing the MERS-CoV-PLpro activity"}, {"measurement": "inhibition of virus replication by NP antigen immunofluorescence", "setting": "SARS-CoV-2 [3]", "value": "marginal virus suppression"}, {"measurement": "inhibition of virus replication by NP antigen immunofluorescence", "setting": "MERS-CoV [4]", "value": "marginal virus suppression"}, {"measurement": "modification of PLpro by HA-Ub-VS", "setting": "SARS-CoV-2 PLpro [9]", "value": "almost completely eliminated"}]}
